Consider three compounds from patent US12077503B2, “Substituted cyclic amides and their use as herbicides” (FMC CORPORATION, priority 2015, dated 2024).

Holding throughout (format): in vivo
The subject of test [1] is ducksalad (Heteranthera limosa). The test is described as follows: Test B flooded paddy test. The conditions noted are these: Heteranthera limosa, 250 g ai/ha, Flood; 0 to 100 scale where 0 is no effect and 100 is complete control; read-out: Ducksalad plant response rating. The method, boiled down: (§1)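 Visual ratings (0 none to 100 complete control) are relative to untreated plants, taken 13–15 d after treatment in a greenhouse. Test material went straight into floodwater standing 3 cm above the soil, kept constant, on plants at the 2-leaf stage.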

The subject of test [2] is sedge, umbrella (small-flower umbrella sedge, Cyperus difformis). Put plainly: Test B flooded paddy test. The conditions noted are these: Cyperus difformis, 250 g ai/ha, Flood; 0 to 100 scale where 0 is no effect and 100 is complete control; read-out: Sedge, Umbrella plant response rating. The method, boiled down:
as §1

A further test deals with rice (Oryra sativa). The test is described as follows: Test B flooded paddy test. The conditions noted are these: Oryza sativa, 250 g ai/ha, Flood; 0 to 100 scale where 0 is no effect and 100 is complete control; read-out: Rice plant response rating. The method, boiled down:
as §1

Test [3] has as its system barnyardgrass (Echinochloa crus-galli). Put plainly: Test B flooded paddy test. The conditions noted are these: Echinochloa crus-galli, 250 g ai/ha, Flood; 0 to 100 scale where 0 is no effect and 100 is complete control; read-out: Barnyardgrass plant response rating. The method, boiled down:
as §1

The subject of another test is Kochia (Kochia scoparia). The test is described as follows: Test A postemergence. The conditions noted are these: Bassia scoparia, post-emergence, 240 h, postemergence; for pest or weed control at 125 g/ha: 125 g ai/ha; for pest or weed control at 500 g/ha: 500 g ai/ha, 0 to 100 scale, 0 is no effect, 100 is complete control. The method, boiled down: (§2)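 Visual injury scores from 0, no effect, to 100, complete control, were assigned versus untreated controls roughly 10 d after treatment in the greenhouse. Test chemicals, formulated with surfactant in a non-phytotoxic solvent, were applied to planted seeds as a preemergence soil spray or postemergence to one- to two-leaf plants 2 to 10 cm tall, in loam–sand soil.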

Test [4] concerns blackgrass (Alopecurus myosuroides). The test is described as follows: Test A postemergence. The conditions noted are these: Alopecurus myosuroides, post-emergence, 240 h, postemergence; for pest or weed control at 125 g/ha: 125 g ai/ha; for pest or weed control at 500 g/ha: 500 g ai/ha, 0 to 100 scale, 0 is no effect, 100 is complete control. The method, boiled down:
as §2

Test [5] concerns ryegrass, Italian (Italian ryegrass, Lolium multiflorum). The test is described as follows: Test A postemergence. The conditions noted are these: Lolium multiflorum, post-emergence, 240 h, postemergence; for pest or weed control at 125 g/ha: 125 g ai/ha; for pest or weed control at 500 g/ha: 500 g ai/ha, 0 to 100 scale, 0 is no effect, 100 is complete control. The method, boiled down:
as §2

Test [6] concerns Galium (catchweed bedstraw, Galium aparine). The test is described as follows: Test A postemergence. The conditions noted are these: Galium, post-emergence, 240 h, postemergence; for pest or weed control at 125 g/ha: 125 g ai/ha; for pest or weed control at 500 g/ha: 500 g ai/ha, 0 to 100 scale, 0 is no effect, 100 is complete control. The method, boiled down: as §2
A further test has as its system corn (Zea mays). The test is described as follows: Test A postemergence. The conditions noted are these: Zea mays, post-emergence, 240 h, postemergence; for plant injury at 125 g/ha: 125 g ai/ha; for plant injury at 500 g/ha: 500 g ai/ha, 0 to 100 scale, 0 is no effect, 100 is complete control. The method, boiled down:
as §2

Test [7] has as its system wheat (Triticum aestivum). The test is described as follows: Test A postemergence. The conditions noted are these: Triticum aestivum, post-emergence, 240 h, postemergence; for plant injury at 125 g/ha: 125 g ai/ha; for plant injury at 500 g/ha: 500 g ai/ha, 0 to 100 scale, 0 is no effect, 100 is complete control. The method, boiled down: as §2
The test system of test [8] is giant foxtail (Setaria faberii). The test is described as follows: Test A postemergence. The conditions noted are these: Setaria faberi, post-emergence, 240 h, postemergence; for pest or weed control at 125 g/ha: 125 g ai/ha; for pest or weed control at 500 g/ha: 500 g ai/ha, 0 to 100 scale, 0 is no effect, 100 is complete control. The method, boiled down: as §2
The subject of test [9] is barnyardgrass (Echinochloa crus-galli). Put plainly: Test A postemergence. The conditions noted are these: Echinochloa crus-galli, post-emergence, 240 h, postemergence; for pest or weed control at 125 g/ha: 125 g ai/ha; for pest or weed control at 500 g/ha: 500 g ai/ha, 0 to 100 scale, 0 is no effect, 100 is complete control. The method, boiled down:
as §2

The test system of test [10] is pigweed (Amaranthus retroflexus). Put plainly: Test A postemergence. The conditions noted are these: Amaranthus retroflexus, post-emergence, 240 h, postemergence; for pest or weed control at 125 g/ha: 125 g ai/ha; for pest or weed control at 500 g/ha: 500 g ai/ha, 0 to 100 scale, 0 is no effect, 100 is complete control. The method, boiled down:
as §2

Test [11] concerns ragweed (common ragweed, Ambrosia elatior). The test is described as follows: Test A postemergence. The conditions noted are these: Ambrosia artemisiifolia, post-emergence, 240 h, postemergence; for pest or weed control at 125 g/ha: 125 g ai/ha; for pest or weed control at 500 g/ha: 500 g ai/ha, 0 to 100 scale, 0 is no effect, 100 is complete control. The method, boiled down:
as §2

Setting [12] is: read-out: Kochia plant response rating.
The mark [13] stands for this setting: read-out: Blackgrass plant response rating.
Setting [14] is: read-out: Ryegrass, Italian plant response rating.
Where [15] appears, read: read-out: Galium plant response rating.
The mark [16] stands for this setting: read-out: Corn plant response rating.
The mark [17] stands for this setting: read-out: Wheat plant response rating.
[18] abbreviates: read-out: Foxtail, Giant plant response rating.
Where [19] appears, read: read-out: Barnyardgrass plant response rating.
Setting [20] is: read-out: Pigweed plant response rating.
[21] abbreviates: read-out: Ragweed plant response rating.
The mark [22] stands for this setting: visual injury vs untreated controls after approx. 10 d, 0 = no effect, 100 = complete control, read-out: Kochia plant response rating (0 to 100 scale).
[23] abbreviates: visual injury vs untreated controls after approx. 10 d, 0 = no effect, 100 = complete control, read-out: Blackgrass plant response rating (0 to 100 scale).
[24] abbreviates: visual injury vs untreated controls after approx. 10 d, 0 = no effect, 100 = complete control, read-out: Ryegrass, Italian plant response rating (0 to 100 scale).
Where [25] appears, read: visual injury vs untreated controls after approx. 10 d, 0 = no effect, 100 = complete control, read-out: Galium plant response rating (0 to 100 scale).
Where [26] appears, read: visual injury vs untreated controls after approx. 10 d, 0 = no effect, 100 = complete control, read-out: Corn plant response rating (0 to 100 scale).
The mark [27] stands for this setting: visual injury vs untreated controls after approx. 10 d, 0 = no effect, 100 = complete control, read-out: Wheat plant response rating (0 to 100 scale).
Setting [28] is: visual injury vs untreated controls after approx. 10 d, 0 = no effect, 100 = complete control, read-out: Foxtail, Giant plant response rating (0 to 100 scale).
[29] abbreviates: visual injury vs untreated controls after approx. 10 d, 0 = no effect, 100 = complete control, read-out: Barnyardgrass plant response rating (0 to 100 scale).
Where [30] appears, read: visual injury vs untreated controls after approx. 10 d, 0 = no effect, 100 = complete control, read-out: Pigweed plant response rating (0 to 100 scale).
[31] abbreviates: visual injury vs untreated controls after approx. 10 d, 0 = no effect, 100 = complete control, read-out: Ragweed plant response rating (0 to 100 scale).

Where two headings read alike, the source gives them in different places.

With `CN1C[C@H](c2csc3ccccc23)[C@@H](C(=O)Nc2ccccc2F)C1=O` [Compound 1114], the pest or weed control at 250 g/ha in test [1] was 85%; in [2] it was 0%; in the test on rice (Oryra sativa) it was 0%; in test [3], 45%. The pest or weed control at 125 g/ha came to 0% in the test with Kochia (Kochia scoparia) (visual injury on 0 to 100 scale (0 no effect, 100 complete control), approx. 10 d, read-out: Kochia plant response rating); 20% in test [4] (visual injury on 0 to 100 scale (0 no effect, 100 complete control), approx. 10 d, read-out: Blackgrass plant response rating); 0% in test [5] (visual injury on 0 to 100 scale (0 no effect, 100 complete control), approx. 10 d, read-out: Ryegrass, Italian plant response rating); 0% in [6] (visual injury on 0 to 100 scale (0 no effect, 100 complete control), approx. 10 d, read-out: Galium plant response rating); 90% in test [8] (visual injury on 0 to 100 scale (0 no effect, 100 complete control), approx. 10 d, read-out: Foxtail, Giant plant response rating); 80% in test [9] (visual injury on 0 to 100 scale (0 no effect, 100 complete control), approx. 10 d, read-out: Barnyardgrass plant response rating). Further, the pest or weed control at 125 g/ha came to 0% in [10] (visual injury on 0 to 100 scale (0 no effect, 100 complete control), approx. 10 d, read-out: Pigweed plant response rating) and 0% in test [11] (visual injury on 0 to 100 scale (0 no effect, 100 complete control), approx. 10 d, read-out: Ragweed plant response rating). Moreover, the pest or weed control at 500 g/ha in the test on Kochia (Kochia scoparia) (setting [12]) is 20%; in test [4] (setting [13]) it was 60%; in test [5] (setting [14]), 40%; in [6] (setting [15]), 20%; in test [8] (setting [18]), 90%; in [9] (setting [19]), 90%. Moreover, the pest or weed control at 500 g/ha in test [10] (setting [20]) and in test [11] (setting [21]) was 0% throughout. In addition, the plant injury at 125 g/ha with corn (Zea mays) (visual injury on 0 to 100 scale (0 no effect, 100 complete control), approx. 10 d, read-out: Corn plant response rating) worked out at 0%; in test [7] (visual injury on 0 to 100 scale (0 no effect, 100 complete control), approx. 10 d, read-out: Wheat plant response rating), 0%. Also, the plant injury at 500 g/ha was found to be 70% in the test with corn (Zea mays) (setting [16]) and 30% in test [7] (setting [17]).

With `CSc1ccccc1NC(=O)[C@H]1C(=O)N(C)CC[C@@H]1c1ccc(C(F)(F)F)cc1` [Compound 1227], the pest or weed control at 250 g/ha in [1] was 80%; in [2] it was 0%; with rice (Oryra sativa) it was 15%; in [3], 0%. In addition, the pest or weed control at 125 g/ha (in the test with Kochia (Kochia scoparia) (setting [22]); in test [4] (setting [23]); in [5] (setting [24]); in test [6] (setting [25]); in test [8] (setting [28]); in test [9] (setting [29])) was 0% in each case. Moreover, the values for the pest or weed control at 125 g/ha in test [10] (setting [30]) and in [11] (setting [31]) were 20% and 0%, respectively. The pest or weed control at 500 g/ha in the test with Kochia (Kochia scoparia) (setting [12]) is 30%; in test [4] (setting [13]), 0%; in test [5] (setting [14]), 0%; in test [6] (setting [15]), 0%; in test [8] (setting [18]), 0%; in [9] (setting [19]), 70%. Moreover, the pest or weed control at 500 g/ha in [10] (setting [20]) was 30%; in test [11] (setting [21]), 0%. Also, the plant injury at 125 g/ha (with corn (Zea mays) (setting [26]); in test [7] (setting [27])) was 0% in each case. Moreover, the plant injury at 500 g/ha (in the test on corn (Zea mays) (setting [16]); in test [7] (setting [17])) was 0% each time.

With `CSc1ccccc1NC(=O)[C@H]1C(=O)N(C)C[C@@H]1c1ccc(F)cc1` [Compound 1236], the pest or weed control at 250 g/ha is 100% in [1], 0% in test [2], 35% in the test with rice (Oryra sativa) and 65% in test [3]. Also, the pest or weed control at 125 g/ha in the test with Kochia (Kochia scoparia) (setting [22]) came out at 20%; in test [4] (setting [23]), 30%; in test [5] (setting [24]) it was 0%; in test [6] (setting [25]), 50%; in test [8] (setting [28]) it was 30%; in test [9] (setting [29]), 100%. Besides, the pest or weed control at 125 g/ha in test [10] (setting [30]) is 20%; in test [11] (setting [31]), 0%. Also, the pest or weed control at 500 g/ha with Kochia (Kochia scoparia) (setting [12]) was determined as 30%; in [4] (setting [13]) it was 30%; in test [5] (setting [14]), 50%; in [6] (setting [15]) it was 60%; in test [8] (setting [18]) it was 90%; in test [9] (setting [19]), 100%. Besides, the pest or weed control at 500 g/ha in test [10] (setting [20]) and in [11] (setting [21]) was 40% in each case. In addition, the results for the plant injury at 125 g/ha (in the test on corn (Zea mays) (setting [26]); in test [7] (setting [27])) were 60% and 0%, respectively. Besides, the plant injury at 500 g/ha with corn (Zea mays) (setting [16]) amounted to 90%.
